{
  "source": "patent US10590085B2",
  "about": "“Heterocyclic amides as kinase inhibitors” (GlaxoSmithKline Intellectual Property Development Limited, priority 2015, dated 2020)",
  "key": {"[1]": {"system": "RIP1 kinase", "conditions": "ischemic brain injury, retinal ischemia/reperfusion injury, Huntington's disease, renal ischemia reperfusion injury, cisplatin induced kidney injury, traumatic brain injury; cited from earlier work"}, "[2]": {"conditions": "background statement; cited from earlier work"}, "[3]": {"system": "TNF/zVAD induced temperature loss in mice", "assay": "TNF-driven systemic inflammatory response syndrome model using TNF plus zVAD (temperature loss)", "assay_type": "in vivo, mouse"}, "[4]": {"system": "mouse L929 fibrosarcoma cells", "assay": "necroptosis assay in L929 cells", "assay_type": "cell-based", "conditions": "viability by cellular ATP (Cell Titer-Glo), read-out: mean pIC50, inhibition of necrosis in L929 cells (converted)", "protocol": "The efficacy of RIP1 inhibitors can be tested […] in vitro using a human monocytic leukemia U937 or mouse L929 fibrosarcoma cells in a necroptosis assay. As determined using the method described in He, S. et al. 2009. Cell 137(6):1100-1111 and International Patent Appln. No. PCT/IB2014/059004, now, International Patent Appln. Pub.\nViability was measured by quantitating cellular levels of ATP using the Cell Titer-Glo kit. All data are means±standard deviation of the mean."}, "[5]": {"system": "TNF induced temperature loss in mice", "assay": "TNF (alone) version of the systemic inflammatory response syndrome model (temperature loss)", "assay_type": "in vivo, mouse", "from_the_text": "The model can be run in a long modality (using TNF alone i.v.) which results in the termination of the study in ˜8 hrs (under IACUC guidelines for temperature loss). […] All data are shown as means±standard error of the mean."}, "[6]": {"molecular_target": "T1, RIP1 kinase (Homo sapiens, UniProt Q13546)", "T1 sequence (Q13546 1-375 limits assumed)": "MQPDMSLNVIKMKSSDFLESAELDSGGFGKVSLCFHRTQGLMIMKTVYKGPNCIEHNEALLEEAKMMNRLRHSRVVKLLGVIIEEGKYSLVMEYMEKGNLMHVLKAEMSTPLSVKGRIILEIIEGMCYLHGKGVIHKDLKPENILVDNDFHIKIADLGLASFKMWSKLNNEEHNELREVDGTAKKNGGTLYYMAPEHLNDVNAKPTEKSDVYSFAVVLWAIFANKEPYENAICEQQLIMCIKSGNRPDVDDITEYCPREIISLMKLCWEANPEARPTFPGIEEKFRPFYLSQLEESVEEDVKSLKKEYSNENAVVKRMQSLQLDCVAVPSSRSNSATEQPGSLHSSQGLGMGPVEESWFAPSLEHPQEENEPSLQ", "assay": "fluorescent polarization based binding assay", "conditions": "mean value, minimum of 2 experiments", "from_the_text": "A fluorescent polarization based binding assay was used to asses the activity of the compounds of this invention, the details of which are disclosed in International Patent Appln. No. PCT/IB2014/059004, now, International Patent Appln. Pub."}},
  "data": [
    {"smiles": "CN1C(=O)C(Cc2c[nH]c3ccccc23)NC1=S", "note": "(centres unmarked) [Necrostatin-1]", "values": [
      {"measurement": "effectiveness in alleviating disease", "setting": "[1]", "result": "effective"},
      {"measurement": "oral bioavailability", "setting": "[2]", "result": "poor"}
    ]},
    {"smiles": "CC(C)(C)C(=O)N1N=CC[C@H]1c1ccccc1", "note": "[Example 13, (S)-2,2-dimethyl-1-(5-phenyl-4,5-dihydro-1H-pyrazol-1-yl)propan-1-one]", "values": [
      {"measurement": "% Inhibition", "setting": "[3]; 20 mg/kg IP, pre-dosed 15 minutes before i.v. mouse TNF (30 μg/mouse) and zVAD (0.4 mg/mouse)", "result": 80, "unit": "%"},
      {"measurement": "IC50", "setting": "[4]", "result": "~5.01", "unit": "nM"}
    ]},
    {"smiles": "CC(C)(C)C(=O)N1N=CC[C@H]1c1ccccn1", "note": "[Example 48, (S)-2,2-dimethyl-1-(5-(pyridin-2-yl)-4,5-dihydro-1H-pyrazol-1-yl)-propan-1-one]", "values": [
      {"measurement": "% Inhibition", "setting": "[3]; 0.5 mg/kg IP, pre-dosed 15 minutes before i.v. mouse TNF and zVAD", "result": 17, "unit": "%"},
      {"measurement": "% Inhibition", "setting": "[3]; 5 mg/kg IP, pre-dosed 15 minutes before i.v. mouse TNF and zVAD", "result": 52, "unit": "%"},
      {"measurement": "% Inhibition", "setting": "[3]; 50 mg/kg IP, pre-dosed 15 minutes before i.v. mouse TNF and zVAD", "result": 91, "unit": "%"},
      {"measurement": "IC50", "setting": "[4]", "result": "~200", "unit": "nM"}
    ]},
    {"smiles": "CC(C)(C)C(=O)N1N=CC[C@H]1c1ccc(Cl)cc1", "note": "[Example 66, (S)-1-(5-(4-chlorophenyl)-4,5-dihydro-1H-pyrazol-1-yl)-2,2-dimethyl-propan-1-one]", "values": [
      {"measurement": "% Inhibition", "setting": "[3]; 0.1 mg/kg IP, pre-dosed 15 minutes before i.v. mouse TNF and zVAD", "result": 52, "unit": "%"},
      {"measurement": "IC50", "setting": "[4]", "result": "~0.00158", "unit": "nM"}
    ]},
    {"smiles": "CC(=O)N1CCC(C(=O)N2N=CC[C@H]2c2cc(F)cc(F)c2)CC1", "note": "[Example 203, (S)-1-(4-(5-(3,5-difluorophenyl)-4,5-dihydro-1H-pyrazole-1-carbonyl)piperidin-1-yl)ethanone]", "values": [
      {"measurement": "% Inhibition", "setting": "[3]; 1 mg/kg PO, pre-dosed 15 minutes before i.v. mouse TNF and zVAD", "result": 9, "unit": "%"},
      {"measurement": "% Inhibition", "setting": "[3]; 10 mg/kg PO, pre-dosed 15 minutes before i.v. mouse TNF and zVAD", "result": 46, "unit": "%"},
      {"measurement": "% Inhibition", "setting": "[3]; 100 mg/kg PO, pre-dosed 15 minutes before i.v. mouse TNF and zVAD", "result": 88, "unit": "%"},
      {"measurement": "% Inhibition", "setting": "[5]; 1 mg/kg orally pre-dosed 15 minutes before i.v. mouse TNF (30 μg/mouse) alone", "result": "−14", "unit": "%"},
      {"measurement": "% Inhibition", "setting": "[5]; 10 mg/kg orally pre-dosed 15 minutes before i.v. mouse TNF alone", "result": 45, "unit": "%"},
      {"measurement": "% Inhibition", "setting": "[5]; 100 mg/kg orally pre-dosed 15 minutes before i.v. mouse TNF alone", "result": 86, "unit": "%"},
      {"measurement": "IC50", "setting": "[6]", "result": "~31.6", "unit": "nM"}
    ]}
  ]
}
